Patent publication US20100008980A1, “Use of MAGE A3-Protein D Fusion Antigen in Immunotherapy Combined with Surgery, Chemotherapy or Radiotherapy for the Treatment of Cancer” (priority 2007, published 2010)
Where two headings read alike, the source gives them in different places.

Columns and labels:
MAGE-A3 = system: MAGE-A3
Protocol: (§1) Groups of CB6F1 female mice (n=10/group) received at day 0 sub-cutaneous (SC) 10e5 TC1-Mage3 cells followed by injection of: • Group 1: PBS at day 3-7-11-15 • Group 2: MAGE-A3 (1 μg)/As 15 ASCI at day 3-7-11-15 • Group 3: Cyclophosphamide (CY) (2 mg IP) at day 0+PBS at day 3-7-11-15 • Group 4: CY+MAGE-A3 (1 μg)/AS15 ASCI
(§2) • verification of the depletion by FACS at day 3 and 15 on whole blood • in vivo tumor growth from day 0 to day 28 • ICS at day 28 on spleen cells • serology at day 28 (not completed)
14 days after the last ASCI injection, the T cell response was analyzed by intracellular cytokine staining of CD4 and CD8 using flow cytometry (3 pools per group) after a short in vitro restimulation (2 Hrs) with the pool of MAGE-A3 overlapping peptide spanning the entire MAGE-A3 sequence.

TC1-Mage3 cells = format: in vivo, CB6F1 female mice; details: 10e5 TC1 MAGE3 cells SC day 0; cyclophosphamide 2 mg at day 0; groups of 10 mice
Protocol: as §1, §2

CD4+CD25+ Treg = format: in vivo, CB6F1 female mice; details: for % CD4+ CD25+/ total cell / % Treg/ total cell / CD4+ CD25+ (events): blood, CY 2 mg IP at day 0
Protocol: as §1, §2
(§3) In order to analyze the impact of 2 mg of CY injected intraperitoneally in mice, 3 and 15 days after the injection blood was taken and lymphocytes count was performed by FACS

lymphocytes = format: in vivo, CB6F1 female mice; details: for Total Cell count (multisizer): blood, CY 2 mg IP at day 0
Protocol: as §1, §2, §3

SMILES: O=P1(N(CCCl)CCCl)NCCCO1 (stereo not shown) [Cyclophosphamide (Cy), Cyclophosphamide]
- MAGE-A3 specific CD4 response (MAGE-A3; cyclophosphamide by itself, spleen cells day 28, FIG. 1): did not induce any MAGE-A3 specific CD4 response
- MAGE-A3 specific CD8 response (MAGE-A3; cyclophosphamide by itself, spleen cells day 28, FIG. 2): did not induce any MAGE_A3 specific CD8 response
- effect on the CD4 response induced by the ASCI (MAGE-A3; cyclophosphamide given 3 days before the ASCI, FIG. 1): did not abolish the CD4 response induced by the ASCI there is even a trend in favor of a better response
- effect on the CD8 response induced by the ASCI (MAGE-A3; cyclophosphamide given 3 days before the ASCI, FIG. 2): did not abolish the CD8 response induced by the ASCI there is even a trend in favor of a better response
- tumor rejection, % of the animals (TC1-Mage3 cells): 100%
- number of T reg (in words) (CD4+CD25+ Treg; 3 days after 2 mg cyclophosphamide): only slightly decreased the number of T reg but did not deplete them
- % CD4+ CD25+/ total cell (CD4+CD25+ Treg; 3 days): 0.1%
- % Treg/ total cell (CD4+CD25+ Treg; 3 days): 0.07%
- CD4+ CD25+ (events) (CD4+CD25+ Treg; 3 days): 274 events
- % CD4+ CD25+/ total cell (CD4+CD25+ Treg; 15 days): 0.16%
- % Treg/ total cell (CD4+CD25+ Treg; 15 days): 0.13%
- CD4+ CD25+ (events) (CD4+CD25+ Treg; 15 days): 539 events
- total number of T cells (in words) (lymphocytes; 3 days after 2 mg CY): has an impact on the total number of T cells
- total number of T cells (in words) (lymphocytes; 15 days after the injection of CY): almost restored
- Total Cell count (multisizer) (lymphocytes; 3 days after injection): 1 ×10e6 cells/ml
- Total Cell count (multisizer) (lymphocytes; 15 days after injection): 5.53 ×10e6 cells/ml
